The results in this text go back to patent publication US10201158B2, “Plant disease control composition and method for controlling plant disease by application of same” (MITSUI CHEMICALS AGRO, INC., priority 2014, dated 2019).

Where two headings read alike, the source gives them in different places.

Assay [1] has as its system Botrytis cinerea. The conditions noted are these: in vivo.
For assay [2], the system named is Pyricularia oryzae. The class given is in vivo.
The test system of assay [3] is Blumeria graminis. The assay can be described thus: Barley powdery mildew preventive test. The class given is in vivo. The conditions noted are these: Table 4; treatment concentration 2 ppm; 8 days after inoculation. As to the method: Barley plants (variety: Akashinriki) planted in plastic pots having a diameter of 5 cm were grown indoors to the second to fourth leaf stage. Wettable powder containing the compounds indicated in Table 4 were sprayed in the same manner as in Test Example 1, and after the chemical had dried, conidia of Blumeria graminis was inoculated onto the leaves. Following inoculation, the pots were transferred to a constant-temperature chamber (20° C. to 25° C.), and control effects were examined 8 days after inoculation.

Assay [4] relates to Phytophthora infestans. The class given is in vivo.
Assay [5] deals with Pseudoperonospora cubensis. The assay can be described thus: Cucumber downy mildew preventive test. The class given is in vivo. The following applies: Table 8, 7 days after inoculation. As to the method: In a greenhouse, cucumber (variety: Sagamihanshiro) planted in a plastic pot having a diameter of 5 cm was grown to the 3rd to 5th-leaf stage. Spray was carried out in the same manner as in Test example 1, and after drying the chemical liquid, the pots were transferred into a greenhouse. After 3 days from the spray, a zoosporangium suspension of Pseudoperonospora cubensis was inoculated. After inoculation, the pots were placed in a high-humidity chamber (20 to 25° C.), transferred into a greenhouse on the next day, and controlling effects were examined after 7 days from the inoculation. A ratio of lesion area occupied per one leaf of cucumber was determined according to the same index as in Test example 1, and the control value and the theoretical value according to Colby's formula were similarly calculated.

In assay [6] the test system is Sphaerotheca fuliginea. The assay can be described thus: Cucumber powdery mildew preventive test. The class given is in vivo. Here is the method:
In a greenhouse, cucumber (variety: Sagamihanshiro) planted in a plastic pot having a diameter of 5 cm was grown to the 3rd to 5th-leaf stage. Spray was carried out in the same manner as in Test example 1, and 3 days after the spray, a conidia suspension prepared from Sphaerotheca fuliginea were inoculated on the leaf surface. After inoculation, the pots were placed in a thermostatic greenhouse (20 to 25° C.), and controlling effects were examined after 7 days from the inoculation. In the examination, a ratio of lesion area occupied per one leaf of cucumber was determined according to the same index as in Test example 1, and the control value and the theoretical value according to Colby's formula were similarly calculated.
Wettable powder prepared in compliance with Comparative Preparation Example 4 containing the compounds indicated in Table 7-9 were sprayed to the cucumber leaves, a conidiospore suspension prepared from Sphaerotheca fuliginea was inoculated onto the plants, and the controlling effects were examined in a manner similar to Test Example 6.

Where [7] appears, read: Table 3-4, group b ingredient alone, treatment concentration 10 + 2 ppm.
The mark [8] stands for this setting: Table 3-3, treatment concentration 50 ppm.
Setting [9] is: Table 3-3, treatment concentration 10 ppm.
The mark [10] stands for this setting: Table 3-4, group b ingredient alone, treatment concentration 10 + 10 ppm.
Where [11] appears, read: Table 3-2, treatment concentration 10 ppm.
The mark [12] stands for this setting: Table 6-2, treatment concentration 0.08 ppm, 5 days after inoculation.
Setting [13] is: treatment concentration 0.08 ppm.
The mark [14] stands for this setting: Table 3-5 (Comparative Example 2), treatment concentration 0.4 ppm.
[15] abbreviates: Table 6-2, treatment concentration 2 ppm, 5 days after inoculation.

For `Cn1cc(C(=O)Nc2cccc3c2[C@@H]2CC[C@H]3C2=C(Cl)Cl)c(C(F)F)n1` (racemic) [Benzovindiflupyr (b-2), Benzovindiflupyr], the Preventive value in assay [1] and in assay [2] (setting [7]) was 40 in each case. In assay [3], this compound displayed a Control value of 50.
In the case of `CON=C(C(=O)OC)c1ccccc1CON=C(C)c1cccc(C(F)(F)F)c1` [Trifloxystrobin (b-55), Trifloxystrobin], the Preventive value in assay [1] amounted to 33; in assay [2] (setting [7]), 57.
With `CCCCCCCCc1c(CC)nc2ncnn2c1N` [Ametoctradin (b-95), Ametoctradin], the Preventive value was determined as 40 in assay [4] (in vivo) and 50 in assay [5] (treatment concentration 2 ppm).
Regarding `CC(C)OC(=O)C(C(=O)OC(C)C)=C1SCCS1` [Isoprothiolane (b-71), Isoprothiolane], the Preventive value in assay [2] (setting [8]) amounted to 50; in assay [6] (in vivo) it was 40.
With `Cc1ccc(C(C)NC(=O)[C@@H](NC(=O)OC(C)C)C(C)C)cc1` (stereo partly drawn) [Iproyalicarb (b-50)], in assay [5] (treatment concentration 2 ppm), the Preventive value was found to be 50.
On to `C=CCOC1=NS(=O)(=O)c2ccccc21` [Probenazole (b-73), Probenazole], for which the Preventive value in assay [2] (setting [9]) was determined as 60; in assay [6] (in vivo), 40.
With `O=C(CO)[C@@H](O)[C@@H](O)[C@H](O)CO` [D-tagatose (b-93), D-tagatose], the Preventive value came out at 33 in assay [1]; 40 in assay [4] (Table 6-3, treatment concentration 5000 ppm, 5 days after inoculation); 33 in assay [6] (in vivo).
For `OC(Cc1ccccc1Cl)(Cn1nc[nH]c1=S)C1(Cl)CC1` (stereo not drawn) [Prothioconazole (b-23), Prothioconazole], the Preventive value in assay [1] and in assay [2] (setting [10]) was 33 in each case.
Consider `Cc1cc(C(F)(F)F)nn1CC(=O)N1CCC(c2nc(C3=NOC(c4c(F)cccc4F)C3)cs2)CC1` (stereo not drawn) [Oxathiapiprolin (b-84), Oxathiapiprolin], for which the Preventive value turned out to be 33 in assay [1]; 67 in assay [4] (Table 6-3, treatment concentration 0.0016 ppm, 5 days after inoculation); 17 in assay [6] (in vivo).
`CO/N=C(/C1=NOCCO1)c1ccccc1Oc1ncnc(Oc2ccccc2Cl)c1F` [Fluoxastrobin (b-51), Fluoxastrobin]: the values for the Preventive value in assay [1] and in assay [2] (setting [11]) were 40 and 60, respectively. The compound further showed a Control value in assay [6] (in vivo) of 60.
With `CCC(C)(NC(=O)c1cc(Cl)c(C)c(Cl)c1)C(=O)CCl` (stereo not drawn) [Zoxamide (b-39), Zoxamide], the Preventive value in assay [4] (Table 6-2, treatment concentration 0.4 ppm, 5 days after inoculation) was determined as 40; in assay [5] (treatment concentration 0.4 ppm), 33.
For the compound `CSC(=O)c1cccc2nnsc12` [Acibenzolar-S-methyl (b-72), Acibenzolar-S-methyl], the Preventive value turned out to be 60 in assay [2] (setting [10]) and 33 in assay [6] (Table 7-7, treatment concentration 2 ppm, 7 days after inoculation).
Turning to `COP(=S)(OC)Oc1c(Cl)cc(C)cc1Cl` [Tolclofos-methyl], the Preventive value in assay [2] (in vivo) and in assay [6] (in vivo) was 33 each time.
Turning to `CCn1cc(C(=O)O)c(=O)c2cc3c(cc21)OCO3` [Oxolinic acid], the Preventive value amounted to 17 in assay [1]; 33 in assay [2] (Table 3-5 (Comparative Example 2), treatment concentration 50 ppm); 33 in assay [6] (in vivo).
For `Cc1c(Br)c2ccc(F)cc2n1S(=O)(=O)c1ncn(S(=O)(=O)N(C)C)n1` [Amisulbrom (b-97), Amisulbrom], the Preventive value was found to be 50 in assay [4] (setting [12]) and 67 in assay [5] (setting [13]).
Regarding `CCC1(C(=O)N[C@H](C)c2ccc(Cl)cc2)C(C)C1(Cl)Cl` (stereo partly drawn) [Carpropamid], the figures for the Preventive value in assay [1], in assay [2] (setting [14]) and in assay [6] (in vivo) were 17, 67 and 33, respectively.
Take `CNC(=O)/C(=N/OC)c1ccccc1COc1cc(C)ccc1C` [Dimoxystrobin (b-52), Dimoxystrobin]: the figures for the Preventive value in assay [1] and in assay [2] (setting [11]) were 17 and 73, respectively. The same compound had a Control value in assay [6] (in vivo) of 60.
Regarding `N#Cc1sc2c(=O)c3ccccc3c(=O)c=2sc1C#N` [Dithianon (b-81), Dithianon], the Preventive value in assay [1] is listed as 33; in assay [4] (Table 6-3, treatment concentration 2 ppm, 5 days after inoculation) it was 33.
As to `C[C@@H](NC(=O)C(C#N)C(C)(C)C)c1ccc(Cl)cc1Cl` (stereo partly drawn) [Diclocymet], the Preventive value in assay [1] was 17; in assay [2] (setting [14]), 67; in assay [6] (in vivo) it was 40.
Consider `CNC(=O)/C(=N/OC)c1ccccc1CO/N=C(C)/C(=N/OC)C(/C)=N/OC` [Orysastrobin (b-53), Orysastrobin], for which the values for the Preventive value in assay [1] and in assay [2] (setting [11]) were 47 and 60, respectively. In assay [6] (in vivo), this compound yielded a Control value of 40.
Turning to `CC(C)(C)C(O)C(Oc1ccc(Cl)cc1)n1cncn1` (stereo not drawn) [Triadimenol (b-33), Triadimenol], the Preventive value in assay [1] was 17; in assay [2] (Table 3-4, group b ingredient alone, treatment concentration printed 10 + 250 ppm), 33.
In the case of `COC(=O)[C@@H](C)N(C(=O)Cc1ccccc1)c1c(C)cccc1C` [Benalaxyl-M (b-75), Benalaxyl-M], the Preventive value in assay [4] (setting [15]) is reported as 40; in assay [5] (treatment concentration 2 ppm) it was 67.
`O=C(Nc1ccccc1)N(Cc1ccc(Cl)cc1)C1CCCC1` [Pencycuron (b-76), Pencycuron]: the Preventive value is 40 in assay [2] (Table 3-3, treatment concentration 250 ppm) and 33 in assay [6] (in vivo).
`Cc1ccc(NC(=O)c2snnc2C)cc1Cl` [Tiadinil (b-45), Tiadinil]: the Preventive value in assay [2] (setting [9]) is 60; in assay [6] (in vivo), 40.
For the compound `CC(=O)Oc1c(C)c(C)nc2c(F)cc(C(C)(C)C)cc12` [Tebufloquin (b-64), Tebufloquin], the Preventive value in assay [2] (setting [9]) turned out to be 73; in assay [6] (in vivo), 67.
Regarding `Cc1cc(O)no1` [Hymexazol (b-106)], the Preventive value stood at 33 in assay [4] (Table 6-2, treatment concentration 250 ppm, 5 days after inoculation) and 17 in assay [5] (treatment concentration 250 ppm).
On to `Cn1cc(C(=O)Nc2ccc(F)cc2-c2ccc(Cl)c(Cl)c2)c(C(F)F)n1` [Bixafen (b-4), Bixafen], for which the Preventive value in assay [1] and in assay [2] (setting [10]) was 33 each time.
Consider `CC1CC(C)(C)c2cccc(NC(=O)c3cn(C)nc3C(F)F)c21` (stereo not drawn) [Compound of formula (II) (b-3)], for which the Control value came to 0 in assay [1]; 17 in assay [2] (Table 3-1, treatment concentration 2 ppm); 67 in assay [3].
With `O=C(NCCc1ncc(C(F)(F)F)cc1Cl)c1ccccc1C(F)(F)F` [Fluopyram (b-43), Fluopyram], the Preventive value in assay [1] and in assay [2] (setting [10]) was 40 each time.
As to `O=C1CCc2cccc3c2N1CC3` [Pyroquilon (b-104), Pyroquilon], the Preventive value was 67 in assay [2] (setting [8]) and 7 in assay [6] (in vivo).
Consider `Cc1ccc(C(C)NC(=O)[C@@H](NC(=O)OC(C)C)C(C)C)cc1` (stereo partly drawn) [Iprovalicarb (b-50), Iprovalicarb], for which the Preventive value in assay [4] (setting [15]) came out at 50.
`O=C(NCc1ncc(C(F)(F)F)cc1Cl)c1c(Cl)cccc1Cl` [Fluopicolide (b-40), Fluopicolide]: the Preventive value is recorded as 40 in assay [4] (setting [15]) and 67 in assay [5] (treatment concentration 2 ppm).
For `C#CCOc1ccc(CCNC(=O)C(OCC#C)c2ccc(Cl)cc2)cc1OC` (stereo not drawn) [Mandipropamid (b-44), Mandipropamid], the Preventive value in assay [4] (setting [12]) and in assay [5] (setting [13]) was 67 throughout.
On to `COC(=O)N(OC)c1ccccc1COc1ccn(-c2ccc(Cl)cc2)n1` [Pyraclostrobin (b-19), Pyraclostrobin], for which the Preventive value in assay [2] (setting [7]) turned out to be 40.
For `Cc1cc(C)nc(Nc2ccccc2)n1` [Pyrimethanil (b-62), Pyrimethanil], the Preventive value in assay [1] is reported as 33; in assay [2] (Table 3-4, group b ingredient alone, treatment concentration printed 10 + 50 ppm) it was 33.
Consider `CNC(=O)/C(=N/OC)c1ccccc1Oc1ccccc1` [Metominostrobin (b-54), Metominostrobin], for which the Preventive value in assay [2] (setting [7]) turned out to be 40.
